Earlier results in patent publication US7939102B2, “Controlled release formulation of lamotrigine” (Torrent Pharmaceuticals Ltd., priority 2003, dated 2011).

Tests used:
[1] = not given; remark: listed apart in the source
[2] = tested on: seizures; details: acute and chronic studies in humans (Betts et al, 1991)

dose dependence of plasma concentrations (Ramsay RE, 1991): vary linearly with the dose
increase of plasma concentrations with concomitant sodium valproate (valproate reduces hepatic clearance, for a given dose): approximately two fold
patients reporting nausea and vomiting ([1]; first 18 weeks of treatment, mean concentration of 6.00 to 7.99 μg/ml): 16.7%
discontinuation of therapy due to rash ([1]; placebo-controlled trials): 1%
patients with rash ([1]; placebo-controlled trials): 10%
Compound: Nc1nnc(-c2cccc(Cl)c2Cl)c(N)n1 [lamotrigine, 3,5-diamino-6(2,3-dichlorophenyl)-1,2,4-triazine]
plasma levels at which side effects were reported ([1]; Binnie et al., 1987, side effects only in patients above this level): above 3 μg/ml
incidence of side effects (dizziness, ataxia, diplopia, somnolence, headache, asthenia) ([1]; Ramsay RE, 1991): around 10%
patients reporting headache and ataxia ([1]; first 18 weeks of treatment, at >10 μg/ml): 100%
patients removed from clinical trials because of adverse experiences ([1]; rash, nausea/vomiting, CNS-related events): 8.6%
lamotrigine levels effective in controlling seizures [2]: 1 to 3 µg/mL
